PMC9134315, “Systemic Administration of a Brain Permeable Cdk5 Inhibitor Alters Neurobehavior” (Frontiers in Pharmacology, 2022)

System: C57BL/6 mice
Test: Open-field test
Assay type: in vivo, mouse
Conditions: 50 mg/kg
Procedure: The OFT was performed as described ([Chakraborti et al., 2021]). With the adaptation duration of the test being 1 h for each mouse, briefly, the mice were placed in a square box (40 cm × 40 cm) and allowed to freely explore. The center square portion of the maze was defined as the “open area.” Video tracking using EthoVision 16 software was used to track animal movement throughout the box and stereotypic and locomotive behaviors such as hopping, sniffing, and rearing. Total distance traveled, entries into the center of the maze, and duration in the center were tracked and analyzed in EthoVision.
To establish a functional effect of pharmacological Cdk5 inhibition in the brain, we tested mouse performance in two behavioral paradigms previously shown to be altered in Cdk5 knockout mice: the open-field maze and the tail suspension test ([Plattner et al., 2015]). The open-field maze was used to measure locomotion and anxiety-like behavior ([Cacace et al., 2011]; [Seibenhener and Wooten, 2015]). Mice were injected with either vehicle or 50 mg/kg of 25–106 and allowed to freely explore an open-field maze for 1 h with locomotor activity being tracked (Figure 7).

COc1cc(CC(=O)Nc2cc(C3CCC3)[nH]n2)cc(OC)c1OC [25–106, N-(5-cyclobutyl-1H-pyrazol-3-yl)-2-(3,4,5-trimethoxyphenyl)acetamide]
duration of time spent in the open portion of the maze vs. vehicle (1 h after injection, 1 h test): longer duration of time | entries into the open portion of the maze vs. vehicle (1 h after injection, 1 h test): increased number of entries | hopping bouts vs. vehicle (open-field testing): increased hopping bouts | rearing behaviors vs. vehicle (open-field testing): increased rearing behaviors | time sniffing vs. vehicle (open-field testing): increased time sniffing
